Data from patent US20130244929A1 (priority 2010, published 2013).
Where a name gives a salt, the structure may show the parent alone. Read-outs that look alike come from different tables or passages of the source.

Key:
SpsB = molecular target: T1, SpsB (Staphylococcus aureus, UniProt P0A070); test: Inhibition of SpsB enzyme activity (fluorescence-based assay, bacterial membrane fraction); assay type: biochemical
T1 construct: using a bacterial membrane fraction as a source of SpsB; from tissue
T1 sequence (P0A070 1-191): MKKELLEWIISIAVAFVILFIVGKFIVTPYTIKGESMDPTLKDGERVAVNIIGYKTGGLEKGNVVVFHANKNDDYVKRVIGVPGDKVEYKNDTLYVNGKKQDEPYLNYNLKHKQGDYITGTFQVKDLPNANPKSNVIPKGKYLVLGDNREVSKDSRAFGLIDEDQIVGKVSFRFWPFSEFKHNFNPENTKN
Procedure, shortened: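 Membrane fraction from bacteria supplied SpsB (0.6 mg/mL final protein), added last to start reactions with 20 μM lipopeptide substrate decanoyl-K(DABCYL)-TPTAKA↓ASKKD-D(EDANS)-NH2 (Km≈5 μM). Cleavage was followed as rising fluorescence, excitation 340/emission 460 nm.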

[1] = system: MB 5393 (COL), a methicillin-resistant S. aureus strain; test: Determination of minimum and synergistic inhibitory concentration; assay type: cell-based; conditions: for SIC: presence of imipenem (4 μg/mL); for MIC: Staphylococcus aureus
Procedure, shortened: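 Broth microdilution: two-fold compound dilutions (final 64 to 0.0313 μg/mL) tested with and without subinhibitory imipenem (4 μg/mL) against MRSA COL at ~5×10^5 CFU/mL, 37°C, 22-24 hr stationary. MIC is lowest concentration preventing visible growth without imipenem; SIC same with imipenem.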

[2] = MRSA COL, absence of imipenem, 22 hours, read-out: MIC

| SMILES | IC50 (SpsB) [nM] | SIC ([1]; MRSA COL, 22 hours) | MIC [1, 2] [µg/mL] | MIC ([1]; MRSA, 22 h) [µg/mL] | IC50 (SpsB; 20 μM peptide substrate, read-out: SpsB IC50) [nM] |
| --- | --- | --- | --- | --- | --- |
| CCCCCCCCCCc1ccc2cc(C(=O)NCCC(=O)N3CCCC3C(=O)N(C)[C@@H]3C(=O)N[C@@H](C)C(=O)N[C@H](C(=O)O)Cc4ccc(O)c(c4)-c4cc3ccc4O)ccc2c1 (stereo in doubt) [EXAMPLE 14, (8S,11S,14S)-3,18-dihydroxy-11-methyl-14-(methyl{[(2R)-1-{3-[(6-decyl-2-naphthoyl)amino]propanoyl}pyrrolidin-2-yl]carbonyl}amino)-10,13-dioxo-9,12-diazatricyclo[13.3.1.1^2,6]icosa-1(19),2(20),3,5,15,17-hexaene-8-carboxylic acid] | < 10 | G (G: SIC <0.0625) | < 1 |  |  |
| CCCCCCCCCc1ccc(-c2ccc(C(=O)NCCC(=O)N[C@@H](CCCCN)C(=O)N(C)[C@@H]3C(=O)N[C@@H](C)C(=O)N[C@H](C(=O)O)Cc4ccc(O)c(c4)-c4cc3ccc4O)c(O)c2)cc1 [EXAMPLE 39] | < 10 | G (G: SIC <0.0625) |  | < 1 |  |
| CCCCCCCCCc1ccc(-c2ccc(C(=O)NCCC(=O)N3C[C@@H](N)C[C@H]3C(=O)N(C)[C@@H]3C(=O)N[C@@H](C)C(=O)N[C@H](C(=O)O)Cc4ccc(O)c(c4)-c4cc3ccc4O)cc2)cc1 [EXAMPLE 44] | < 10 | G (G: SIC <0.0625) |  | < 1 |  |
| CCCCCCCCCCc1ccc2cc(C(=O)NCCC(=O)N3CC[C@H]3C(=O)N(C)[C@@H]3C(=O)N[C@@H](C)C(=O)N[C@H](C(=O)O)Cc4ccc(O)c(c4)-c4cc3ccc4O)ccc2c1 [EXAMPLE 20, (8S,11S,14S)-3,18-dihydroxy-11-methyl-14-(methyl[(2R)-1-{3-[(6-decyl-2-naphthoyl)amino]propanoylazetidin-2-yl]carbonyl}amino)-10,13-dioxo-9,12-diazatricyclo[13.3.1.1^2,6]icosa-1(19),2(20),3,5,15,17-hexaene-8-carboxylic acid] | < 10 | G (G: SIC <0.0625) | 1 to 8 |  |  |
| C[C@@H]1NC(=O)[C@@H](N(C)C(=O)[C@H](CCCCN)NC(=O)CCNC(=O)c2ccc(CCCCCCCCc3ccccc3)cc2)c2ccc(O)c(c2)-c2cc(ccc2O)C[C@@H](C(=O)O)NC1=O.O=C(O)C(F)(F)F [EXAMPLE 15, (5S)-6-[[(7S,10S,13S)-13-carboxy-3,18-dihydroxy-10-methyl-8,11-dioxo-9,12-diazatricyclo[13.3.1.12,6]icosa-1(19),2(20),3,5,15,17-hexaen-7-yl](methyl)amino]-6-oxo-5-[(3-{[4-(8-phenyloctyl)benzoyl]amino}propanoyl)amino]hexan-1-aminium] | < 10 | G (G: SIC <0.0625) | < 1 |  |  |
| CCCCCCCCCc1ccc(-c2ccc(C(=O)NCCC(=O)N[C@@H](CCCN)C(=O)N(C)C3C(=O)N[C@@H](C)C(=O)N[C@H](C(=O)O)Cc4ccc(O)c(c4)-c4cc3ccc4O)cc2)cc1 (stereo partly drawn) [EXAMPLE 24] | < 10 | G (G: SIC <0.0625) |  | < 1 |  |
| CCCCCCCCCCc1ccc2nc(C(=O)NCCC(=O)N[C@@H](CCCCN)C(=O)N(C)[C@@H]3C(=O)N[C@@H](C)C(=O)N[C@H](C(=O)O)Cc4ccc(O)c(c4)-c4cc3ccc4O)ccc2c1 [EXAMPLE 62] | 10 to 50 | G (G: SIC <0.0625) | < 1 |  |  |
| CCCCc1ccc(C#Cc2ccc(C(=O)NCCC(=O)NC(CCCCN)C(=O)N(C)[C@@H]3C(=O)N[C@@H](C)C(=O)N[C@H](C(=O)O)Cc4ccc(OC)c(c4)-c4cc3ccc4OC)cc2)cc1 (stereo partly drawn) [EXAMPLE 10, 5-{[3-({4-[(4-butylphenyl)ethynyl]benzoyl}amino)propanoyl]amino}-6-[[(7S,10S,13S)-13-carboxy-3,18-dimethoxy-10-methyl-8,11-dioxo-9,12-diazatricyclo[13.3.1.1^2,6]icosa-1(19),2(20),3,5,15,17-hexaen-7-yl](methyl)amino]-6-oxohexart-1-aminium trifluoroacetate] | < 10 | H (H: SIC 0.062-1) | 1 to 8 |  |  |
| C[C@@H]1NC(=O)[C@@H](N(C)C(=O)[C@H](CCCCN)NC(=O)CCNC(=O)c2coc(CCCCCCCCc3ccccc3)n2)c2ccc(O)c(c2)-c2cc(ccc2O)C[C@@H](C(=O)O)NC1=O [EXAMPLE 64] | 10 to 50 | G (G: SIC <0.0625) |  | < 1 |  |
| COc1ccc2cc1-c1cc(ccc1OC)[C@H](N(C)C(=O)[C@H](CCCCN)NC(=O)CCNC(=O)c1ccc(-c3ccc(CCCCCCCCC(C)(C)O)cc3)cc1)C(=O)N[C@@H](C)C(=O)N[C@H](C(=O)O)C2 [EXAMPLE 56] | < 10 | H (H: SIC 0.062-1) |  | 1 to 8 |  |
| CCCCc1ccc(-c2ccc(C(=O)NCCC(=O)N[C@@H](CCCCN)C(=O)N(C)[C@@H]3C(=O)N[C@@H](C)C(=O)N[C@H](C(=O)O)Cc4ccc(O)c(c4)-c4cc3ccc4O)cc2)cc1 [EXAMPLE 51] | < 10 | G (G: SIC <0.0625) |  | < 1 |  |
| CCCc1ccc(-c2ccc(C(=O)NCCC(=O)N(CCCCN)CC(=O)N(C)[C@@H]3C(=O)N[C@@H](C)C(=O)N[C@H](C(=O)O)Cc4ccc(OC)c(c4)-c4cc3ccc4OC)cc2)cc1.O=C(O)C(F)(F)F [EXAMPLE 11, 4-[{2-[[(7S,10S,13S)-13-carboxy-3,18-dimethoxy-10-methyl-8,11-dioxo-9,12-diazatricyclo[13.3.1.1^2,6]icosa-1(19),2(20),3,5,15,17-hexaen-7-yl](methyl)amino]-2-oxoethyl}(3-{[(4′-propylbiphenyl-4-yl)carbonyl]amino}propanoyl)amino]butan-1-aminium trifluoroacetate] |  | H (H: SIC 0.062-1) | > 8 |  | 10 to 50 |
| CCCCCCCOCc1ccc(-c2ccc(C(=O)NCCC(=O)N[C@@H](CCCCN)C(=O)N(C)[C@@H]3C(=O)N[C@@H](C)C(=O)N[C@H](C(=O)O)Cc4ccc(O)c(c4)-c4cc3ccc4O)cc2)cc1 [EXAMPLE 36] | < 10 | G (G: SIC <0.0625) |  | < 1 |  |
| CCCc1ccc(-c2ccc(C(=O)NCCC(=O)N3CC(CCN)C[C@H]3C(=O)N(C)[C@@H]3C(=O)N[C@@H](C)C(=O)N[C@H](C(=O)O)Cc4ccc(O)c(c4)-c4cc3ccc4O)cc2)cc1 (stereo partly drawn) [EXAMPLE 53] | < 10 | G (G: SIC <0.0625) |  | < 1 |  |
| CCCCCCCCCc1ccc(-c2ccc(C(=O)NCCC(=O)N[C@@H](CCCCN)C(=O)N(C)[C@@H]3C(=O)N[C@@H](C)C(=O)N[C@H](C(=O)O)Cc4ccc(O)c(c4)-c4cc3ccc4O)cc2C)cc1 [EXAMPLE 58] | < 10 | G (G: SIC <0.0625) |  | < 1 |  |
| CCCCCCCCCc1ccc(-c2ccc(C(=O)NCCC(=O)N[C@@H](CCCCN)C(=O)N(C)[C@@H]3C(=O)N[C@@H](C)C(=O)N[C@H](C(=O)O)Cc4ccc(O)c(c4)-c4cc3ccc4O)nc2)cc1 [EXAMPLE 32] | < 10 | G (G: SIC <0.0625) |  | < 1 |  |
